From patent publication US20250059231A1, “Protease inhibitors” (priority 2021, published 2025)
Where two headings read alike, the source gives them in different places. Where a SMILES comes first, the peptide text is derived from it. [ ]: non-standard residue; d: D form. The star is where a group is joined. Benzoyl(4-Ph) = O=C(c1ccc(-c2ccccc2)cc1)*; Palmitoyl = CCCCCCCCCCCCCCCC(=O)*; NHhexadecyl = CCCCCCCCCCCCCCCCN*; 3Pal = N[C@@H](Cc1cccnc1)C(=O)O; β3hK = NCCCC[C@H](N)CC(=O)O; X1 = FC(F)(F)c1ccc(CN*)cc1; Propionyl = CCC(=O)*; NHPr = CCCN*

Molecular target: T1, DENV protease (Dengue virus type 2, UniProt P29990)
T1 construct: The virus-encoded dengue protease comprises the amino-terminal 180 amino acids of NS3 (NS3pro) of the polyprotein
T1 sequence (P29990 1398-1437): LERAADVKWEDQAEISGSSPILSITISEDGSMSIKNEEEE
T1 sequence (P29990 1476-1653): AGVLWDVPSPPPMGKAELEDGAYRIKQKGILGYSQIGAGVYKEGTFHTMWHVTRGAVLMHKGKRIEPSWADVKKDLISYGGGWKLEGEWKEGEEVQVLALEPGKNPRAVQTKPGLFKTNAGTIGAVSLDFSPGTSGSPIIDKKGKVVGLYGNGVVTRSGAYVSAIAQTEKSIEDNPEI
Experiment: biochemical
Conditions: read-out: inhibition of DENV
Protocol: Dilutions were made starting from 10 mM stock solutions in DMSO and final concentrations were measured in triplicates. The inhibitors were preincubated for 15 min with DENV protease (100 nM) in the assay buffer (50 mM Tris-HCl pH 9.0, ethylene glycol (10% v/v), and 0.0016% Brij 58). The enzymatic reaction was initiated by the addition of the FRET substrate (final concentration 50 μM) to obtain a final assay volume of 100 μL per well. The enzymatic activity was monitored for 15 min and determined as a slope of relative fluorescence units per second (RFU/s) for each concentration. The mean of the triplicates were plotted against the corresponding concentration in CDDVault to determine the IC50-values. Analogous procedures were used to determine the inhibitory potency on WNV (Kühl et al., J. Med. Chem. 2020, 63 (15): 8179-8197) and ZIKA protease (Nitsche et al., ACS Med. Chem. Lett. 2019 Feb. 14; 10 (2): 168-174). For selectivity screening of active candidates, similar biochemical assays with human serine proteases trypsin (Weigel et al., J. Med. Chem. 2015, 58 (19), 7719-7733.) and/or thrombin (Nitsche et al., J. Med. Chem. 2013, 56 (21), 8389-8403) were used.

Row | SMILES | inhibition at 50 µM (at 50 μM) [%] | also measured
1 | CC(=O)N[C@@H](C)C(=O)N[C@@H](CCCNC(=N)N)C(=O)N[C@@H](CCC(N)=O)C(=O)N[C@@H](Cc1ccccc1)B(O)O [compound 61] | ≥ 25 | –
2 | CCCCCCCCCCCCCCCC(=O)N[C@@H](CCCCN)C(=O)N[C@H](C)C(=O)N[C@@H](CCCCN)C(N)=O [compound 146] (Palmitoyl-Lys-[dA]-Lys-NH2) | ≥ 25 | –
3 | CCCCCCCCCCCCCCCC(=O)N[C@@H](CCCNc1ncc[nH]1)C(=O)N[C@@H](CCC(N)=O)C(=O)N[C@@H](Cc1ccccc1)C(N)=O [compound 65] | ≥ 25 | –
4 | CCCCCCCCCCCCCCCC(=O)N[C@@H](CCCCN)CC(=O)N1CCC[C@H]1C(=O)N[C@@H](C)C(=O)N[C@H](CCCCN)C(N)=O [compound 119] (Palmitoyl-[β3hK]PA[dK]-NH2) | ≥ 25 | –
5 | CCCCCCCCCCCCCCCCNC(=O)[C@H](CCCCN)NC(=O)[C@H](CCC(N)=O)NC(=O)[C@H](CCCNC(=N)N)NC(=O)[C@H](C)N [compound 32] (H-ARQK-NHhexadecyl) | ≥ 25 | –
6 | CCCCCCCCCCCCCCCC(=O)N[C@@H](CCCCN)CC(=O)N[C@@H](C)C(=O)N[C@@H](C)CC(=O)N[C@H](CCc1ccccc1)C(N)=O [compound 91] | ≥ 25 | –
7 | CCCCCCCCCCCCCCCC(=O)N[C@@H](CCCCN)C(=O)N[C@@H](C)C(=O)N1CCC[C@H]1C(=O)N[C@@H](CCCCN)C(N)=O [compound 133] (Palmitoyl-KAPK-NH2) | ≥ 25 | –
8 | CCCCCCCCCCCCCCCC(=O)N[C@@H](CCCNC(=N)N)C(=O)N[C@@H](CCC(N)=O)C(=O)N[C@@H](Cc1ccccc1)B(O)O [compound 60] | ≥ 25 | –
9 | CCCCCCCCCCCCCCCC(=O)N[C@@H](CCCCN)C(=O)N[C@@H](C)C(=O)N[C@@H](C)C(=O)N[C@H](CCc1c[nH]cn1)C(N)=O [compound 173] | ≥ 25 | inhibition at 1 µM (at 1 μM): ≥ 20%
10 | CCCCCCCCCCCCCCCC(=O)N[C@@H](CCCCN)C(=O)N1CCC[C@H]1C(=O)N[C@@H](C)C(=O)N[C@@H](CCCCN)C(=O)O [compound 126] (Palmitoyl-KPAK-OH) | ≥ 25 | –
11 | CCCCCCCCCCCCCCCC(=O)N[C@@H](CCCCN)C(=O)N[C@@H](C)C(=O)N[C@H](CCCCN)C(N)=O [compound 160] (Palmitoyl-Lys-Ala-[dK]-NH2) | ≥ 25 | –
12 | CCCCCCCCCCCCCCCC(=O)N[C@@H](Cc1cccnc1)C(=O)N[C@@H](CCC(N)=O)C(=O)N[C@@H](Cc1ccccc1)C(N)=O [compound 64] (Palmitoyl-[3Pal]-Gln-Phe-NH2) | ≥ 25 | –
13 | C[C@H](NC(=O)[C@H](CCCCN)NC(=O)c1ccc(-c2ccccc2)cc1)C(=O)N[C@@H](CCCCN)CC(=O)NCc1ccc(C(F)(F)F)cc1 [compound 78] | – | inhibition at 50 µM: ≥ 25%
14 | CCCCCCCCCCCCCCCC(=O)N[C@@H](CCCCN)CC(=O)N[C@@H](C)C(=O)N[C@@H](C)C(=O)N[C@@H](CCCCN)C(N)=O [compound 82] (Palmitoyl-[β3hK]AAK-NH2) | ≥ 25 | –
15 | CCCCCCCCCCCCCCCC(=O)N[C@@H](CCCCN)C(=O)N1CCC[C@H]1C(=O)N[C@@H](Cc1cnc[nH]1)C(=O)N[C@@H](CCCCN)C(N)=O [compound 12] (Palmitoyl-KPHK-NH2) | ≥ 25 | –
16 | CCCCCCCCCCCCCCCC(=O)N[C@@H](CCCCN)C(=O)N1CCC[C@H]1C(=O)N[C@@H](C)C(=O)N[C@@H](CCCCN)C(=O)c1ccccc1 [compound 128] | ≥ 25 | –
17 | CCCCCCCCCCCCCCCC(=O)N[C@@H](CCCCN)C(=O)N1CCC[C@H]1C(=O)N[C@@H](C)C(=O)N[C@@H](CCCCN)c1nnc(C)o1 [compound 1] | ≥ 25 | –
18 | CCCCCCCCCCCCCCCC(=O)N[C@@H](CCCCN)C(=O)N[C@@H](CCCNC(=N)N)C(N)=O [compound 111] (Palmitoyl-Lys-Arg-NH2) | ≥ 25 | –

Row | SMILES | inhibition at 50 µM (at 50 μM) [%] | also measured
19 | CCCCCCCCCCCCCCCC(=O)N[C@@H](C)C(=O)N[C@@H](C)C(=O)N[C@@H](C)C(=O)N[C@H](CCCCN)C(N)=O [compound 150] (Palmitoyl-AAA[dK]-NH2) | ≥ 25 | –
20 | CCCCCCCCCCCCCCCC(=O)N[C@@H](Cc1cccc(NC(=N)N)c1)C(=O)N[C@@H](CCC(N)=O)C(=O)N[C@@H](Cc1ccccc1)C(N)=O [compound 67] | ≥ 25 | –
21 | C[C@H](NC(=O)[C@H](C)NC(=O)[C@H](CCCCN)NC(=O)c1ccc(-c2ccccc2)cc1)C(=O)N[C@@H](CCCCN)C(=O)NCc1ccc(C(F)(F)F)cc1 [compound 89] ({Benzoyl(4-Ph)}-KAAK-X1) | ≥ 25 | –
22 | CCCCCCCCCCCCCCCC(=O)N[C@@H](C)C(=O)N1C[C@@H](Oc2ccncc2)C[C@H]1C(=O)N[C@@H](C)C(=O)N[C@@H](CCCCN)C(N)=O [compound 7] | ≥ 25 | –
23 | CCCCCCCCCCCCCCCC(=O)N[C@@H](CCCCN)CCN1CCC[C@H]1CC(=O)N[C@@H](C)C(=O)N[C@@H](Cc1c[nH]c2ccccc12)C(N)=O [compound 120] | ≥ 25 | –
24 | CCCCCCCCCCCCCCCC(=O)N[C@@H](CCCCN)C(=O)N[C@@H](C)C(=O)N[C@@H](C)C(=O)N[C@H](CCCCN)C(=O)O [compound 134] (Palmitoyl-KAA[dK]-OH) | ≥ 25 | –
25 | CCCCCCCCCCCCCCCC(=O)N[C@@H](CCCCN)C(=O)N1CCC[C@H]1C(=O)N[C@@H](C)C(=O)N[C@@H](CCc1ccccc1)c1nnc(C)o1 [compound 4] | ≥ 25 | –
26 | CCCCCCCCCCCCCCCC(=O)N[C@@H](Cc1c[nH]cn1)C(=O)N[C@@H](CCC(N)=O)C(=O)N[C@@H](Cc1ccccc1)C(N)=O [compound 52] (Palmitoyl-His-Gln-Phe-NH2) | ≥ 25 | –
27 | CCCCCCCCCCCCCCCC(=O)N[C@@H](CCCNC(=N)N)C(=O)N[C@@H](CCCCN)C(N)=O [compound 161] (Palmitoyl-Arg-Lys-NH2) | ≥ 25 | –
28 | CCCCCCCCCCCCCCCC(=O)N[C@@H](CCCCN)C(=O)N[C@@H](C)C(=O)N[C@@H](C)C(=O)N[C@H](CCCCN)C(=O)NS(=O)(=O)C1CC1 [compound 135] | ≥ 25 | –
29 | CCCCCCCCCCCCCCCC(=O)N[C@@H](CCCCN)C(=O)N1CCC[C@H]1C(=O)N[C@@H](C)C(=O)N[C@H](C(N)=O)c1ccc(OCc2ccccc2)cc1 [compound 130] | ≥ 25 | –
30 | CCCCCCCCCCCCCCCC(=O)N[C@@H](CCCCN)C(=O)N[C@@H](C)C(=O)N[C@@H](CCCCN)C(N)=O [compound 97] (Palmitoyl-Lys-Ala-Lys-NH2) | ≥ 25 | –
31 | CCCCCCCCCCCCCCCC(=O)N[C@@H](C)C(=O)N[C@@H](C)C(=O)N[C@@H](CCCCN)C(=O)N[C@H](C)C(N)=O [compound 149] (Palmitoyl-AAK[dA]-NH2) | ≥ 25 | –
32 | CCCCCCCCCCCCCCCC(=O)N[C@@H](CCc1c[nH]cn1)C(=O)N[C@@H](CCC(N)=O)C(=O)N[C@@H](Cc1ccccc1)C(N)=O [compound 59] | ≥ 25 | –
33 | CCCNC(=O)[C@H](CCCCN)NC(=O)[C@H](CCCCN)NC(=O)[C@H](CCCCN)NC(=O)[C@H](C)NC(=O)CC [compound 21] (Propionyl-AKKK-NHPr) | ≥ 25 | –
34 | CCCCCCCCCCCCCCCC(=O)N[C@@H](CCc1ccncc1)C(=O)N[C@@H](CCC(N)=O)C(=O)N[C@@H](Cc1ccccc1)C(N)=O [compound 57] | ≥ 25 | –
35 | CCCCCCCCCCCCCCCC(=O)N[C@@H](CCCCN)C(=O)N[C@@H](C)C(=O)N[C@@H](CCCCN)C(=O)O [compound 188] (Palmitoyl-Lys-Ala-Lys-OH) | ≥ 25 | –
